Measured values from PubChem BioAssay AID212 (DTP/NCI, 2004).
“And” between values parts separate entries of the source, which are not always exact repeats. Equal entries are not always repeated. Results filed as inconclusive are left out. Where a SMILES comes first, the peptide text is derived from it. Bridges are numbered along the chain shown (N, C = ends). Roman numbers before positions name the chains, in order. [ ]: non-standard residue; d: D form. The star is where a group is joined. Quinoxaline2carbonyl = O=C(c1cnc2ccccc2n1)*; NMeV = CN[CH](C(=O)O)C(C)C; NMeC = CN[CH](CS)C(=O)O

Test system: BDF1 mice, colon carcinoma 38 sc, T/C %
Test: NCI In Vivo Anticancer Drug Screen. Data for tumor model Colon Carcinoma 38 (subcutaneous) in B6D2F1 (BDF1) mice
Procedure, shortened: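 Ratio of survival or tumor size, compound-treated animals relative to vehicle controls, in tumor-bearing mice.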

[1] = endpoint: median tumor weight (est.), dose: 50.0 mg/kg/injection, schedule: Q07DX002 (ip), vehicle: saline with Tween-80, higher = larger tumour
[2] = endpoint: median tumor weight (est.), dose: 200.0 mg/kg/injection, schedule: Q07DX002 (ip), vehicle: saline with Tween-80, higher = larger tumour
[3] = endpoint: median tumor weight (est.), dose: 400.0 mg/kg/injection, schedule: Q07DX002 (ip), vehicle: saline with Tween-80, higher = larger tumour
[4] = endpoint: median tumor weight (est.), dose: 12.5 mg/kg/injection, schedule: Q07DX002 (ip), vehicle: saline with Tween-80, higher = larger tumour
[5] = endpoint: median tumor weight (est.), dose: 25.0 mg/kg/injection, schedule: Q07DX002 (ip), vehicle: saline with Tween-80, higher = larger tumour
[6] = endpoint: median tumor weight (est.), dose: 25.0 mg/kg/injection, schedule: Q07DX002 (ip), vehicle: saline, higher = larger tumour

O=C1c2ccccc2C(=O)c2c(NCCNCCO)ccc(NCCNCCO)c21
T/C (endpoint: median survival time, dose: 20.0 mg/kg/injection, schedule: Q04DX004 (ip), vehicle: saline, higher = longer survival): 110 % of control | T/C (endpoint: median survival time, dose: 40.0 mg/kg/injection, schedule: Q04DX004 (ip), vehicle: saline, higher = longer survival): 110 % of control | T/C (endpoint: median survival time, dose: 80.0 mg/kg/injection, schedule: Q04DX004 (ip), vehicle: saline, higher = longer survival): 120 % of control | T/C (endpoint: median tumor weight (est.), dose: 1.0 mg/kg/injection, schedule: Q07DX002 (ip), vehicle: saline, higher = larger tumour): 89 % of control | T/C (endpoint: median tumor weight (est.), dose: 1.5 mg/kg/injection, schedule: Q07DX003 (ip), vehicle: saline with Tween-80, higher = larger tumour): 47 % of control and 64 % of control | T/C (endpoint: median tumor weight (est.), dose: 2.0 mg/kg/injection, schedule: Q07DX002 (ip), vehicle: saline, higher = larger tumour): 77 % of control | T/C (endpoint: median tumor weight (est.), dose: 3.0 mg/kg/injection, schedule: Q07DX003 (ip), vehicle: saline with Tween-80, higher = larger tumour): 81 % of control | T/C (endpoint: median tumor weight (est.), dose: 3.0 mg/kg/injection, schedule: Q07DX003 (ip), vehicle: saline, higher = larger tumour): 59 % of control and 72 % of control | T/C (endpoint: median tumor weight (est.), dose: 4.0 mg/kg/injection, schedule: Q07DX002 (ip), vehicle: acid diluted with saline, higher = larger tumour): 82 % of control | T/C (endpoint: median tumor weight (est.), dose: 4.0 mg/kg/injection, schedule: Q07DX002 (ip), vehicle: saline, higher = larger tumour): 66 % of control | T/C (endpoint: median tumor weight (est.), dose: 6.0 mg/kg/injection, schedule: Q07DX003 (ip), vehicle: saline with Tween-80, higher = larger tumour): 11 % of control | T/C (endpoint: median tumor weight (est.), dose: 8.0 mg/kg/injection, schedule: Q07DX002 (ip), vehicle: Klucel (hydroxypropylcellulose) (HPC), higher = larger tumour): 107 % of control | T/C (endpoint: median tumor weight (est.), dose: 8.0 mg/kg/injection, schedule: Q07DX002 (ip), vehicle: acid diluted with saline, higher = larger tumour): 70 % of control | T/C (endpoint: median tumor weight (est.), dose: 8.0 mg/kg/injection, schedule: Q07DX002 (ip), vehicle: saline, higher = larger tumour): 82 % of control | T/C (endpoint: median tumor weight (est.), dose: 8.0 mg/kg/injection, schedule: Q07DX003 (ip), vehicle: Klucel (hydroxypropylcellulose) (HPC), higher = larger tumour): 65 % of control | T/C (endpoint: median tumor weight (est.), dose: 8.0 mg/kg/injection, schedule: Q07DX003 (ip), vehicle: water, higher = larger tumour): 56 % of control | T/C (endpoint: median tumor weight (est.), dose: 16.0 mg/kg/injection, schedule: Q07DX002 (ip), vehicle: Klucel (hydroxypropylcellulose) (HPC), higher = larger tumour): 120 % of control | T/C (endpoint: median tumor weight (est.), dose: 16.0 mg/kg/injection, schedule: Q07DX002 (ip), vehicle: acid diluted with saline, higher = larger tumour): 39 % of control | T/C (endpoint: median tumor weight (est.), dose: 16.0 mg/kg/injection, schedule: Q07DX002 (ip), vehicle: saline, higher = larger tumour): 48 % of control | T/C (endpoint: median tumor weight (est.), dose: 16.0 mg/kg/injection, schedule: Q07DX003 (ip), vehicle: Klucel (hydroxypropylcellulose) (HPC), higher = larger tumour): 54 % of control | T/C (endpoint: median tumor weight (est.), dose: 16.0 mg/kg/injection, schedule: Q07DX003 (ip), vehicle: water, higher = larger tumour): 47 % of control | T/C (endpoint: median tumor weight (est.), dose: 25.0 mg/kg/injection, schedule: Q07DX003 (ip), vehicle: Klucel (hydroxypropylcellulose) (HPC), higher = larger tumour): 46 % of control | T/C (endpoint: median tumor weight (est.), dose: 25.0 mg/kg/injection, schedule: Q07DX003 (iv), vehicle: Klucel (hydroxypropylcellulose) (HPC), higher = larger tumour): 4 % of control and 18 % of control and 25 % of control | T/C (endpoint: median tumor weight (est.), dose: 32.0 mg/kg/injection, schedule: Q07DX002 (ip), vehicle: Klucel (hydroxypropylcellulose) (HPC), higher = larger tumour): 65 % of control | T/C (endpoint: median tumor weight (est.), dose: 32.0 mg/kg/injection, schedule: Q07DX002 (ip), vehicle: acid diluted with saline, higher = larger tumour): 4 % of control | T/C (endpoint: median tumor weight (est.), dose: 32.0 mg/kg/injection, schedule: Q07DX002 (ip), vehicle: saline, higher = larger tumour): 10 % of control | T/C (endpoint: median tumor weight (est.), dose: 32.0 mg/kg/injection, schedule: Q07DX003 (ip), vehicle: Klucel (hydroxypropylcellulose) (HPC), higher = larger tumour): 52 % of control | T/C (endpoint: median tumor weight (est.), dose: 32.0 mg/kg/injection, schedule: Q07DX003 (ip), vehicle: water, higher = larger tumour): 28 % of control | T/C (endpoint: median tumor weight (est.), dose: 50.0 mg/kg/injection, schedule: Q07DX003 (ip), vehicle: Klucel (hydroxypropylcellulose) (HPC), higher = larger tumour): 45 % of control | T/C (endpoint: median tumor weight (est.), dose: 50.0 mg/kg/injection, schedule: Q07DX003 (iv), vehicle: Klucel (hydroxypropylcellulose) (HPC), higher = larger tumour): 11 % of control and 17 % of control | T/C (endpoint: median tumor weight (est.), dose: 64.0 mg/kg/injection, schedule: Q07DX002 (ip), vehicle: Klucel (hydroxypropylcellulose) (HPC), higher = larger tumour): 26 % of control

CC1NC(=O)C(NC(=O)c2cnc3ccccc3n2)COC(=O)C(C(C)C)N(C)C(=O)C2CSSCC(C(=O)N(C)C(C(C)C)C(=O)OCC(NC(=O)c3cnc4ccccc4n3)C(=O)NC(C)C(=O)N2C)N(C)C1=O (stereo not drawn) (I: Quinoxaline2carbonyl-SA[NMeC][NMeV] / II: Quinoxaline2carbonyl-SA[NMeC][NMeV]; ester I:1-II:C, I:C-II:1; disulfide I:3-II:3; configuration not given here)
T/C (endpoint: median tumor weight (est.), dose: 25.0 micrograms/kg/injection, schedule: Q07DX002 (ip), vehicle: Klucel (hydroxypropylcellulose) (HPC), higher = larger tumour): 102 % of control | T/C (endpoint: median tumor weight (est.), dose: 50.0 micrograms/kg/injection, schedule: Q07DX002 (ip), vehicle: Klucel (hydroxypropylcellulose) (HPC), higher = larger tumour): 74 % of control | T/C (endpoint: median tumor weight (est.), dose: 100.0 micrograms/kg/injection, schedule: Q07DX002 (ip), vehicle: Klucel (hydroxypropylcellulose) (HPC), higher = larger tumour): 84 % of control | T/C (endpoint: median tumor weight (est.), dose: 200.0 micrograms/kg/injection, schedule: Q07DX002 (ip), vehicle: Klucel (hydroxypropylcellulose) (HPC), higher = larger tumour): 95 % of control

O=CC(S)CO (stereo not drawn)
T/C (endpoint: median tumor weight (est.), dose: 12.5 mg/kg/injection, schedule: Q07DX002 (ip), vehicle: suspension in saline, higher = larger tumour): 76 % of control | T/C (endpoint: median tumor weight (est.), dose: 25.0 mg/kg/injection, schedule: Q07DX002 (ip), vehicle: suspension in saline, higher = larger tumour): 95 % of control | T/C (endpoint: median tumor weight (est.), dose: 50.0 mg/kg/injection, schedule: Q07DX002 (ip), vehicle: suspension in saline, higher = larger tumour): 113 % of control | T/C (endpoint: median tumor weight (est.), dose: 200.0 mg/kg/injection, schedule: Q07DX002 (ip), vehicle: suspension in saline, higher = larger tumour): 97 % of control

CC[C@H](CC[C@@H](C)C1CC[C@H]2[C@@H]3CC=C4C[C@@H](OP(=O)(N5CC5)N5CC5)CC[C@]4(C)[C@H]3CC[C@]12C)C(C)C (stereo partly drawn)
T/C [1]: 95 % of control | T/C [2]: 79 % of control | T/C [3]: 92 % of control

Clc1cc(Cl)c(C[N+]23CN4CN(CN(C4)C2)C3)cc1Cl
T/C [4]: 80 % of control and 90 % of control | T/C [5]: 118 % of control

C=C1CC2(OC1=O)C(=O)N(C)c1ccc(I)cc12 (stereo not drawn)
T/C (endpoint: median tumor weight (est.), dose: 1.81 mg/kg/injection, schedule: Q07DX002 (ip), vehicle: suspension in saline, higher = larger tumour): 69 % of control | T/C (endpoint: median tumor weight (est.), dose: 3.62 mg/kg/injection, schedule: Q07DX002 (ip), vehicle: suspension in saline, higher = larger tumour): 114 % of control | T/C (endpoint: median tumor weight (est.), dose: 7.25 mg/kg/injection, schedule: Q07DX002 (ip), vehicle: suspension in saline, higher = larger tumour): 120 % of control | T/C (endpoint: median tumor weight (est.), dose: 14.5 mg/kg/injection, schedule: Q07DX002 (ip), vehicle: suspension in saline, higher = larger tumour): 63 % of control | T/C [6]: 93 % of control | T/C (endpoint: median tumor weight (est.), dose: 29.0 mg/kg/injection, schedule: Q07DX002 (ip), vehicle: suspension in saline, higher = larger tumour): 107 % of control | T/C (endpoint: median tumor weight (est.), dose: 58.0 mg/kg/injection, schedule: Q07DX002 (ip), vehicle: suspension in saline, higher = larger tumour): 111 % of control | T/C (endpoint: median tumor weight (est.), dose: 200.0 mg/kg/injection, schedule: Q07DX002 (ip), vehicle: saline, higher = larger tumour): 89 % of control | T/C (endpoint: median tumor weight (est.), dose: 400.0 mg/kg/injection, schedule: Q07DX002 (ip), vehicle: saline, higher = larger tumour): 108 % of control and 121 % of control

C=C(C)/C([O-])=N/[N+](C)(C)CC(O)CCCCCCCCCCCC (stereo not drawn)
T/C (endpoint: median tumor weight (est.), dose: 25.0 mg/kg/injection, schedule: Q01DX001 (ip), vehicle: saline, higher = larger tumour): 105 % of control | T/C (endpoint: median tumor weight (est.), dose: 50.0 mg/kg/injection, schedule: Q01DX001 (ip), vehicle: saline, higher = larger tumour): 100 % of control | T/C (endpoint: median tumor weight (est.), dose: 100.0 mg/kg/injection, schedule: Q01DX001 (ip), vehicle: saline, higher = larger tumour): 109 % of control | T/C (endpoint: median tumor weight (est.), dose: 200.0 mg/kg/injection, schedule: Q01DX001 (ip), vehicle: saline, higher = larger tumour): 108 % of control | T/C (endpoint: median tumor weight (est.), dose: 400.0 mg/kg/injection, schedule: Q01DX001 (ip), vehicle: saline, higher = larger tumour): 156 % of control

NC(=S)N/N=C/c1ccc(OC(=O)COc2ccc(Cl)cc2)cn1
T/C [4]: 61 % of control | T/C [5]: 77 % of control | T/C [1]: 119 % of control | T/C (endpoint: median tumor weight (est.), dose: 100.0 mg/kg/injection, schedule: Q07DX002 (ip), vehicle: saline with Tween-80, higher = larger tumour): 89 % of control | T/C [2]: 81 % of control | T/C [3]: 70 % of control

C[CH2][Sn]([CH2]C)([O]S(C)(=O)=O)[O]S(C)(=O)=O
T/C (endpoint: median tumor weight (est.), dose: 1.56 mg/kg/injection, schedule: Q07DX002 (ip), vehicle: saline, higher = larger tumour): 18 % of control | T/C (endpoint: median tumor weight (est.), dose: 3.13 mg/kg/injection, schedule: Q07DX002 (ip), vehicle: saline, higher = larger tumour): 78 % of control | T/C (endpoint: median tumor weight (est.), dose: 6.25 mg/kg/injection, schedule: Q07DX002 (ip), vehicle: saline, higher = larger tumour): 108 % of control and 117 % of control and 96 % of control | T/C [6]: 26 % of control
